# Assay results as given in patent US7041687B2, “Indazole compounds useful as protein kinase inhibitors” (Vertex Pharmaceuticals Incorporated, priority 2002, dated 2006).
# Key:
# Format in all cases: biochemical
# PKA = PKA (Homo sapiens, UniProt P17612); assay: PKA inhibition assay (standard coupled enzyme assay); details: 50 μM ATP, 80 μM Kemptide, 18 nM PKA, 30° C.
# Method: Compounds were screened for their ability to inhibit PKA using a standard coupled enzyme assay (Fox et al., Protein Sci., (1998) 7, 2249). Assays were carried out in a mixture of 100 mM HEPES 7.5, 10 mM MgCl2, 25 mM NaCl, 1 mM DTT and 3% DMSO. Final substrate concentrations in the assay were 50 μM ATP (Sigma Chemicals) and 80 μM peptide (Kemptide, American Peptide, Sunnyvale, Calif.). Assays were carried out at 30° C. and 18 nM PKA. Final concentrations of the components of the coupled enzyme system were 2.5 mM phosphoenolpyruvate, 300 μM NADH, 30 μg/ml pyruvate kinase and 10 μg/ml lactate dehydrogenase.
# An assay stock buffer solution was prepared containing all of the reagents listed above, with the exception of ATP, and the test compound of interest. 55 μl of the stock solution was placed in a 96 well plate followed by addition of 2 μl of DMSO stock containing serial dilutions of the test compound (typically starting from a final concentration of 5 μM). The plate was preincubated for 10 minutes at 30° C. and the reaction initiated by addition of 5 μl of ATP (final concentration 50 μM). Initial reaction rates were determined with a Molecular Devices SpectraMax Plus plate reader over a 15 minute time course. IC50 and Ki data were calculated from non-linear regression analysis using the Prism software package (GraphPad Prism version 3.0a for Macintosh, GraphPad Software, San Diego Calif., USA).
# PDK-1 = target: T1, PDK-1 (Homo sapiens, UniProt O15530); assay: PDK-1 inhibition assay (radioactive-phosphate incorporation); details: 40 μM ATP, 65 μM PDKtide, 25 nM PDK-1, 30° C.
# T1 sequence (O15530 1-556): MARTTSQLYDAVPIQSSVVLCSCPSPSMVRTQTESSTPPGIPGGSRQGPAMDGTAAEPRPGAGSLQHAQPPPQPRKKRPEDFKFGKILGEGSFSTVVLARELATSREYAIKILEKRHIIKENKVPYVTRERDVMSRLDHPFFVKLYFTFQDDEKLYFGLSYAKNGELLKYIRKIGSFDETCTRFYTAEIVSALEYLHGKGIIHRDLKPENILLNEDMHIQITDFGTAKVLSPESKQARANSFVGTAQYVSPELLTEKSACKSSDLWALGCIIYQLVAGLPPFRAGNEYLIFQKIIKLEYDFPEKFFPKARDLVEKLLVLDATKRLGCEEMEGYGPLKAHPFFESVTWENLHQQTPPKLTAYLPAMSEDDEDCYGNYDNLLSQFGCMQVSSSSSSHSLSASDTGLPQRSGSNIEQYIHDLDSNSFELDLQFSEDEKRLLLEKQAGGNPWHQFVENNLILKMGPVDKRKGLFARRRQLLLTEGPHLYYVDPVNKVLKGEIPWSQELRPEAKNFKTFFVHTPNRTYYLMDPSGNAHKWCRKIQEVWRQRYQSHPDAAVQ
# Method: Compounds were screened for their ability to inhibit PDK-1 using a radioactive-phosphate incorporation assay (Pitt and Lee, J. Biomol. Screen., (1996) 1, 47). Assays were carried out in a mixture of 100 mM HEPES (pH 7.5), 10 mM MgCl2, 25 mM NaCl, 2 mM DTT. Final substrate concentrations in the assay were 40 μM ATP (Sigma Chemicals) and 65 μM peptide (PDKtide, Upstate, Lake Placid, N.Y.). Assays were carried out at 30° C. and 25 nM PDK-1 in the presence of ˜27.5 nCi/μL of [γ-^32P]ATP (Amersham Pharmacia Biotech, Amersham, UK). An assay stock buffer solution was prepared containing all of the reagents listed above, with the exception of ATP, and the test compound of interest. 15 μl of the stock solution was placed in a 96 well plate followed by addition of 1 μl of 0.5 mM DMSO stock containing the test compound (final compound concentration 25 μM, final DMSO concentration 5%). The plate was preincubated for about 10 minutes at 30° C. and the reaction initiated by addition of 4 μl ATP (final concentration 40 μM).
# The reaction was stopped after 10 minutes by the addition of 100 μL 100 mM phosphoric acid, 0.01% Tween-20. A phosphocellulose 96 well plate (Millipore, Cat no. MAPHNOB50) was pretreated with 100 μL 100 mM phosphoric acid, 0.01% Tween-20 prior to the addition of the reaction mixture (100 μL). The spots were left to soak for at least 5 minutes, prior to wash steps (4×200 μL 100 mM phosphoric acid, 0.01% Tween-20). Alter drying, 20 μL Optiphase ‘SuperMix’ liquid scintillation cocktail (Perkin Elmer) was added to the well prior to scintillation counting (1450 Microbeta Liquid Scintillation Counter, Wallac).
# AKT-3 = AKT-3 (Homo sapiens, UniProt Q9Y243); assay: AKT-3 inhibition assay (standard coupled enzyme assay); details: 170 μM ATP, 200 μM peptide, 45 nM AKT, 30° C.
# Chain of AKT-3 (Q9Y243 whole entry): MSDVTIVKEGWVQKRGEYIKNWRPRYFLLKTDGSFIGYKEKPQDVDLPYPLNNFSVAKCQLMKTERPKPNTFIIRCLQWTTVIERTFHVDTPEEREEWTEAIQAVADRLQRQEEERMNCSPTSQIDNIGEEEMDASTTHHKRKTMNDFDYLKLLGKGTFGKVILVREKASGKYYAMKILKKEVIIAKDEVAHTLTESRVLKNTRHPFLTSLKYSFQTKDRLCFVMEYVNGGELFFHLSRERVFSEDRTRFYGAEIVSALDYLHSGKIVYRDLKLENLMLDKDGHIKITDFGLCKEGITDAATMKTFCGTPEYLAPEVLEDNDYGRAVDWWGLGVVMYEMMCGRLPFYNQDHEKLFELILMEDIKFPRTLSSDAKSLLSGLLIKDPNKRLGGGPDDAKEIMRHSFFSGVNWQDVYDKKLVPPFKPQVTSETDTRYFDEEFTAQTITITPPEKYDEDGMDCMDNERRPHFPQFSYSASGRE
SMILES,Ki (PKA) [nM],Ki (PDK-1) [nM],Ki (AKT-3) [nM]
Cc1n[nH]c2ccc(NC(=O)[C@H](CCN)c3cccc(Cl)c3F)cc12 [Compound I-125],< 1000,< 1000,< 1000
Cc1n[nH]c2ccc(NC(=O)[C@@H](CCN)c3cccc(Cl)c3F)cc12 [Compound I-126],< 1000,< 1000,< 1000
Cc1n[nH]c2ccc(NC(=O)C(CCN)c3cccc(Cl)n3)cc12 (stereo not drawn) [Compound I-129],< 1000,1000 to 3000,< 1000
COc1c(C(CCN)C(=O)Nc2ccc3[nH]nc(C)c3c2)ccc(Cl)c1Cl (stereo not drawn) [Compound I-130],< 1000,< 1000,< 1000
Cc1cccc(C(CCN)C(=O)Nc2ccc3[nH]nc(C)c3c2)c1 (stereo not drawn) [Compound I-131],< 1000,> 3000,< 1000
Cc1n[nH]c2ccc(NC(=O)C(CCN)c3ccc(Cl)cc3F)cc12 (stereo not drawn) [Compound I-132],< 1000,< 1000,< 1000
Cc1n[nH]c2ccc(NC(=O)C(CCN)c3ccc(Cl)c(Cl)c3O)cc12 (stereo not drawn) [Compound I-133],< 1000,> 3000,< 1000
CNc1n[nH]c2ccc(NC(=O)C(CCN)c3ccc(Cl)c(Cl)c3)cc12 (stereo not drawn) [Compound I-134],< 1000,> 3000,< 1000
CCc1cccc(C(CCN)C(=O)Nc2ccc3[nH]nc(C)c3c2)c1 (stereo not drawn) [Compound I-135],< 1000,> 3000,< 1000
Cc1n[nH]c2ccc(NC(=O)C(CCN)c3ccc(Cl)c(Cl)c3F)cc12 (stereo not drawn) [Compound I-136],< 1000,< 1000,< 1000
NCCC(C(=O)Nc1ccc2[nH]nc(N)c2c1)c1ccc(Cl)c(Cl)c1 (stereo not drawn) [Compound I-138],< 1000,< 1000,< 1000
Cc1n[nH]c2ccc(NC(=O)C(CCN)c3ccc(Cl)s3)cc12 (stereo not drawn) [Compound I-139],< 1000,< 1000,< 1000
CC(=O)Nc1n[nH]c2ccc(NC(=O)C(CCN)c3ccc(Cl)c(Cl)c3)cc12 (stereo not drawn) [Compound I-140],< 1000,1000 to 3000,< 1000
NCCC(C(=O)Nc1ccc2[nH]nc(NC(=O)c3ccccc3)c2c1)c1ccc(Cl)c(Cl)c1 (stereo not drawn) [Compound I-141],< 1000,< 1000,< 1000
NCCC(C(=O)Nc1cc(Br)c2[nH]nc(Cl)c2c1)c1ccc(Cl)c(Cl)c1 (stereo not drawn) [Compound I-145],< 1000,> 3000,< 1000
Cc1cc(NC(=O)C(CCN)c2ccc(Cl)c(Cl)c2)cc2cn[nH]c12 (stereo not drawn) [Compound I-147],< 1000,1000 to 3000,< 1000
CNCCC(C(=O)Nc1ccc2[nH]ncc2c1)c1ccc(Cl)c(Cl)c1 (stereo not drawn) [Compound I-153],< 1000,> 3000,< 1000
NCCCC(C(=O)Nc1ccc2[nH]ncc2c1)c1ccc(Cl)c(Cl)c1 (stereo not drawn) [Compound I-155],< 1000,> 3000,< 1000
O=C(Nc1ccc2[nH]ncc2c1)C1(c2ccccc2)CCNCC1 [Compound I-156],< 1000,> 3000,1000 to 10000
NCCC(C(=O)Nc1ccc2[nH]nc(NCc3ccccc3)c2c1)c1ccc(Cl)c(Cl)c1 (stereo not drawn) [Compound I-158],< 1000,1000 to 3000,1000 to 10000
NCCC(C(=O)Nc1ccc2[nH]nc(NC3CCCCC3)c2c1)c1ccc(Cl)c(Cl)c1 (stereo not drawn) [Compound I-159],< 1000,> 3000,1000 to 10000
NCCC(C(=O)Nc1ccc2[nH]nc(NC(=O)c3cccc(Cl)c3)c2c1)c1ccc(Cl)c(Cl)c1 (stereo not drawn) [Compound I-160],< 1000,1000 to 3000,< 1000

SMILES,Ki (PKA) [nM],Ki (PDK-1) [nM],Ki (AKT-3) [nM]
NCCC(C(=O)Nc1ccc2[nH]nc(Nc3cccc(OCc4ccccc4)c3)c2c1)c1ccc(Cl)c(Cl)c1 (stereo not drawn) [Compound I-161],< 1000,> 3000,< 1000
NCCC(C(=O)Nc1ccc2[nH]nc(Nc3cccc(Cl)c3)c2c1)c1ccc(Cl)c(Cl)c1 (stereo not drawn) [Compound I-162],< 1000,< 1000,< 1000
NCCC(C(=O)Nc1ccc2[nH]nc(Nc3ccc(Cl)cc3)c2c1)c1ccc(Cl)c(Cl)c1 (stereo not drawn) [Compound I-163],< 1000,> 3000,< 1000
N#Cc1ccc(Nc2n[nH]c3ccc(NC(=O)C(CCN)c4ccc(Cl)c(Cl)c4)cc23)cc1 (stereo not drawn) [Compound I-164],< 1000,1000 to 3000,< 1000
N#Cc1cccc(Nc2n[nH]c3ccc(NC(=O)C(CCN)c4ccc(Cl)c(Cl)c4)cc23)c1 (stereo not drawn) [Compound I-165],< 1000,< 1000,< 1000
NCCC(C(=O)Nc1ccc2[nH]nc(Nc3ccc(Br)cc3)c2c1)c1ccc(Cl)c(Cl)c1 (stereo not drawn) [Compound I-166],< 1000,1000 to 3000,< 1000
COc1cccc(C(=O)Nc2n[nH]c3ccc(NC(=O)C(CCN)c4ccc(Cl)c(Cl)c4)cc23)c1 (stereo not drawn) [Compound I-167],< 1000,< 1000,< 1000
COc1ccc(C(=O)Nc2n[nH]c3ccc(NC(=O)C(CCN)c4ccc(Cl)c(Cl)c4)cc23)cc1 (stereo not drawn) [Compound I-168],< 1000,< 1000,< 1000
NCCC(C(=O)Nc1ccc2[nH]nc(NC(=O)c3cccs3)c2c1)c1ccc(Cl)c(Cl)c1 (stereo not drawn) [Compound I-169],< 1000,< 1000,< 1000
NCCC(C(=O)Nc1ccc2[nH]nc(NC(=O)c3ccc(-c4ccccc4)cc3)c2c1)c1ccc(Cl)c(Cl)c1 (stereo not drawn) [Compound I-172],< 1000,< 1000,< 1000
N#Cc1ccc(C(=O)Nc2n[nH]c3ccc(NC(=O)C(CCN)c4ccc(Cl)c(Cl)c4)cc23)cc1 (stereo not drawn) [Compound I-174],< 1000,< 1000,< 1000
N#Cc1cccc(C(=O)Nc2n[nH]c3ccc(NC(=O)C(CCN)c4ccc(Cl)c(Cl)c4)cc23)c1 (stereo not drawn) [Compound I-175],< 1000,1000 to 3000,< 1000
NCC[C@@H](C(=O)Nc1ccc2[nH]nc(NC(=O)c3cccc(Cl)c3)c2c1)c1cccc(Cl)c1F [Compound I-177],< 1000,1000 to 3000,< 1000
NCCC(C(=O)Nc1ccc2[nH]nc(NC(=O)c3cccc(Oc4ccccc4)c3)c2c1)c1ccc(Cl)c(Cl)c1 (stereo not drawn) [Compound I-178],< 1000,> 3000,< 1000
NCCC(C(=O)Nc1ccc2[nH]nc(NC(=O)c3cccc(F)c3)c2c1)c1ccc(Cl)c(Cl)c1 (stereo not drawn) [Compound I-179],< 1000,< 1000,< 1000
NCCC(C(=O)Nc1ccc2[nH]nc(NC(=O)c3ccccc3Cl)c2c1)c1ccc(Cl)c(Cl)c1 (stereo not drawn) [Compound I-180],< 1000,1000 to 3000,< 1000
CCOc1cccc(C(=O)Nc2n[nH]c3ccc(NC(=O)C(CCN)c4ccc(Cl)c(Cl)c4)cc23)c1 (stereo not drawn) [Compound I-181],< 1000,< 1000,< 1000
NCCC(C(=O)Nc1ccc2[nH]nc(NC(=O)c3ccc(Cl)cc3)c2c1)c1ccc(Cl)c(Cl)c1 (stereo not drawn) [Compound I-182],< 1000,< 1000,< 1000
NCCC(C(=O)Nc1ccc2[nH]nc(NC(=O)c3ccc(Cl)c(Cl)c3)c2c1)c1ccc(Cl)c(Cl)c1 (stereo not drawn) [Compound I-183],< 1000,> 3000,< 1000
NCCC(C(=O)Nc1ccc2[nH]nc(NC(=O)c3cc(Cl)cc(Cl)c3)c2c1)c1ccc(Cl)c(Cl)c1 (stereo not drawn) [Compound I-184],< 1000,> 3000,< 1000
Cc1cccc(C(=O)Nc2n[nH]c3ccc(NC(=O)C(CCN)c4ccc(Cl)c(Cl)c4)cc23)c1 (stereo not drawn) [Compound I-185],< 1000,1000 to 3000,< 1000
NCCC(C(=O)Nc1ccc2[nH]nc(NC(=O)c3cccc(Br)c3)c2c1)c1ccc(Cl)c(Cl)c1 (stereo not drawn) [Compound I-186],< 1000,1000 to 3000,< 1000
